Measured values as given in US20130130387A1, “METHOD FOR GENERATING INDUCED PLURIPOTENT STEM CELLS FROM KERATINOCYTES DERIVED FROM PLUCKED HAIR FOLLICLES” (Technion Research & Development Foundation Limited, priority 2010, published 2013).
Entries after “also recorded” stand apart in the source; their conditions may differ.

Legend:
[1] = tested on: HFKT-iPSC-CMs (β-adrenergic signaling pathway); experiment: [Ca2+]i transients and contractions of HFKT-iPSC-derived cardiomyocytes; format: cell-based, human; settings: HFKT-iPSC-CMs clone KTR13, 37 day-old EB, stimulated at 0.6 Hz; effect within 2-3 min
Description: [Ca^2+]i transients and contractions were measured in small dissociated contracting areas of EBs by means of fura-2 fluorescence (Biotium, Hayward, Calif., USA) and a video edge detector, respectively, as previously described (Dolnikov et al. 2006; Sedan et al. 2008).
In order to investigate the basic properties of the intracellular Ca^2+ ([Ca^2+]i) handling machinery and the mechanical function, [Ca^2+]I transients and contractions were recorded from small contracting clusters of the HFKT-iPSC-CMs by means of fura-2 fluorescence and a video edge detector, respectively.

HFKTs (KTN) = experiment: Conditions improving HFKT reprogramming: validated iPSC colonies; format: cell-based, human; settings: for Validated iPSCs colonies: frozen virus, reduced virus concentration

SMILES | Effect on [Ca2+]i transient and contraction amplitudes [1] | Validated iPSCs colonies (HFKTs (KTN); KTN + Cherry (3 reprogramming factors, no c-Myc)) | Validated iPSCs colonies (HFKTs (KTN); KTN + Stemcca (4 reprogramming factors)) | Generation of iPSCs with reduced number of factors (HFKTs (KTN); polycistronic vector with Oct4, Klf4 and Sox2, without c-Myc (cherry vector))
CC(C)NCC(O)c1ccc(O)c(O)c1 (stereo not shown) [isoproterenol] | marked concentration-dependent positive inotropic effect; also recorded: increase in contraction amplitude | – | – | –
Cc1c[nH]c(-c2cnc(NCCNc3ccc(C#N)cn3)nc2-c2ccc(Cl)cc2Cl)n1 [CHIR99021] | – | 6 | 2 | able to generate iPSCs with no c-Myc
